Laboratory results reported in US9212168B2 (priority 2011, dated 2015).

Experiments:
HCV genotype 1b replicon = HCV genotype 1b replicon assay (Renilla luciferase readout); type: cell-based, hepatitis C virus; conditions: HCV genotype 1b replicon
From the text: Assay 1: HCV Genotype 1b Replicon Assay
The HCV genotype 1b replicon cell line was obtained from Apath LLC (Brooklyn, N.Y.) (APC144; Huh7 cell background). This subgenomic replicon contains the N-terminus of the HCV core protein fused to the neomycin-resistance selectable marker. The EMCV IRES lies downstream and drives expression of humanized Renilla luciferase fused to the non-structural proteins NS3-NS5B. This cell line was used to determine compound potency using the luciferase activity readout as a measurement of compound inhibition of replicon levels.
Cells were grown at 37° C. in a 5% CO2 humidified incubator in DMEM (Invitrogen) with 10% FBS (HyClone), 1×NEAA (Invitrogen), 1× Pen-Strep (Invitrogen), and 500 μg/mL G418 (Invitrogen). On day 1 of the assay, cells were plated at 10,000 cells/well in white 96-well tissue culture plates (Costar) in 200 μL media lacking G418. Four hours later, once the cells have adhered, the media was removed and replaced with media (no G418) containing dose-responses of test compounds. Compounds were initially diluted in DMSO and then diluted another 200× in media to bring the final DMSO concentration down to 0.5%. The cells were incubated with test compounds for 48 hours. At the end of the incubation period, media and compound were removed from the plates and the luciferase activity was determined using Promega Renilla-Glo reagents.
To analyze the data, the luciferase activity was plotted vs. the compound concentration, and EC50 values were determined from a 4-parameter robust fit model with the GraphPad Prism software package (GraphPad Software, Inc., San Diego, Calif.). Results are expressed as the negative decadic logarithm of the EC50 value, pEC50.
Test compounds having a higher pEC50 value in this assay show greater inhibition of HCV genotype 1b replication.

HCV genotype 1a replicon = HCV genotype 1a replicon assay (NS3 protease activity readout); type: cell-based, hepatitis C virus; conditions: HCV genotype 1a replicon
Method in brief: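 Genotype 1a subgenomic replicon cells (APC89, Huh7.5) were treated with compound dose-responses in G418-free medium, 0.5% DMSO final, for 48 or 72 hours at 37° C. Lysate NS3/4a protease activity measured with 15 μM FRET substrate, 20 min at 37° C (ex 340/em 509 nm); EC50 by 4-parameter fit.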

Structure (SMILES)	Genotype 1b (HCV genotype 1b replicon)	Genotype 1a (HCV genotype 1a replicon)
CNC(=O)N1CCN(c2ccc(C(=O)Nc3cc(C(F)(F)F)c(-c4ccc(-c5c[nH]c([C@@H]6C[C@H](C)CN6C(=O)[C@@H](NC(=O)OC)C(C)C)n5)cc4)cc3Cl)cn2)[C@H](C)C1 [Example 1-30]	D (D represents pEC50>10 (EC50<0.1 nM))	D (D represents pEC50>10 (EC50<0.1 nM))
COC(=O)N[C@H](C(=O)N1C[C@@H](C)C[C@H]1c1nc(-c2ccc(-c3cc(Cl)c(NC(=O)c4ccc(N5CCN(C(=O)c6ncc[nH]6)C[C@H]5C)nc4)cc3OC(F)(F)F)cc2)c[nH]1)C(C)C [Example 1-35]	D (D represents pEC50>10 (EC50<0.1 nM))	D (D represents pEC50>10 (EC50<0.1 nM))
COC(=O)N[C@H](C(=O)N1C[C@@H](C)C[C@H]1c1nc(-c2ccc(-c3cc(Cl)c(NC(=O)c4ccc(N5CCN(C(=O)c6nccn6C)C[C@H]5C)nc4)cc3OC(F)(F)F)cc2)c[nH]1)C(C)C [Example 1-36]	D (D represents pEC50>10 (EC50<0.1 nM))	D (D represents pEC50>10 (EC50<0.1 nM))
COC(=O)N[C@H](C(=O)N1C[C@@H](C)C[C@H]1c1nc(-c2ccc(-c3cc(Cl)c(NC(=O)c4ccc(N5C[C@H](C)N(C(=O)C6CC6)C[C@H]5C)nc4)cc3OC(F)(F)F)cc2)c[nH]1)C(C)C [Example 1-43]	D (D represents pEC50>10 (EC50<0.1 nM))	D (D represents pEC50>10 (EC50<0.1 nM))
COC(=O)N[C@H](C(=O)N1C[C@@H](C)C[C@H]1c1nc(-c2ccc(-c3cc(Cl)c(NC(=O)c4ccc(N5CCN(C(=O)C(C)(C)C)C[C@H]5C)nc4)cc3C(F)(F)F)cc2)c[nH]1)C(C)C [Example 1-61]	D (D represents pEC50>10 (EC50<0.1 nM))	D (D represents pEC50>10 (EC50<0.1 nM))
COC(=O)N[C@H](C(=O)N1C[C@@H](C)C[C@H]1c1nc(-c2ccc(-c3ccc(NC(=O)c4ccc(N5CCN(C(=O)[C@H]6CC6(C)C)C[C@H]5C)nc4)cc3C(F)(F)F)cc2)c[nH]1)C(C)C [Example 1-62]	D (D represents pEC50>10 (EC50<0.1 nM))	D (D represents pEC50>10 (EC50<0.1 nM))
COC(=O)N[C@H](C(=O)N1C[C@@H](C)C[C@H]1c1nc(-c2ccc(-c3ccc(NC(=O)c4ccc(N5CCN(C(=O)C(C)(C)C)C[C@H]5C)nc4)cc3OC(F)(F)F)cc2)c[nH]1)C(C)C [Example 1-75]	D (D represents pEC50>10 (EC50<0.1 nM))	D (D represents pEC50>10 (EC50<0.1 nM))
COC(=O)N[C@H](C(=O)N1C[C@@H](C)C[C@H]1c1nc(-c2ccc(-c3cc(F)c(NC(=O)c4ccc(N5CCN(C(=O)[C@H]6CC6(C)C)C[C@H]5C)nc4)cc3F)cc2)c[nH]1)C(C)C [Example 1-81]	D (D represents pEC50>10 (EC50<0.1 nM))	D (D represents pEC50>10 (EC50<0.1 nM))
COC(=O)N[C@H](C(=O)N1C[C@@H](C)C[C@H]1c1nc(-c2ccc(-c3cc(F)c(NC(=O)c4ccc(N5CCN(C(=O)C(C)(C)C)C[C@H]5C)nc4)cc3F)cc2)c[nH]1)C(C)C [Example 1-82]	D (D represents pEC50>10 (EC50<0.1 nM))	C (C represents pEC50 between and 9 and about 10, (EC50 between 1 nM and 0.1 nM))
[2H]C([2H])([2H])C1(C([2H])([2H])[2H])CC1C(=O)N1CCN(c2ccc(C(=O)Nc3cc(OC(F)(F)F)c(-c4ccc(-c5c[nH]c([C@@H]6C[C@H](C)CN6C(=O)[C@@H](NC(=O)OC)C(C)C)n5)cc4)cc3F)cn2)[C@H](C)C1 (some centres unmarked) [Example 1-92]	D (D represents pEC50>10 (EC50<0.1 nM))	D (D represents pEC50>10 (EC50<0.1 nM))
COC(=O)N[C@H](C(=O)N1C[C@@H](C)C[C@H]1c1nc(-c2ccc(-c3cc(Cl)c(NC(=O)c4ccc(N5CCN(C(=O)C(C)(C)F)C[C@H]5C)nc4)cc3OC(F)(F)F)cc2)c[nH]1)C(C)C [Example 1-96]	D (D represents pEC50>10 (EC50<0.1 nM))	D (D represents pEC50>10 (EC50<0.1 nM))
COC(=O)N[C@H](C(=O)N1C[C@@H](C)C[C@H]1c1nc(-c2ccc(-c3cc(F)c(NC(=O)c4ccc(N5CCN(C(=O)C(C)(C)CO)C[C@H]5C)nc4)cc3OC(F)(F)F)cc2)c[nH]1)C(C)C [Example 1-101]	D (D represents pEC50>10 (EC50<0.1 nM))	D (D represents pEC50>10 (EC50<0.1 nM))
COC(=O)N[C@H](C(=O)N1C[C@@H](N(C)C)C[C@H]1c1nc(-c2ccc(-c3ccc(NC(=O)c4ccc(N5CCN(C(=O)c6c[nH]cn6)C[C@H]5C)nc4)cc3)cc2)c[nH]1)C(C)C [Example 2-1]	D (D represents pEC50>10 (EC50<0.1 nM))	C (C represents pEC50 between and 9 and about 10, (EC50 between 1 nM and 0.1 nM))
